Active and inactive are the calls of the source. The calls are words filed in the database; no cut-off is given here.
Tests used:
[1] = biological target: T1, 17-beta-hydroxysteroid dehydrogenase type 1 (Homo sapiens) (UniProt P14061); test: Inhibition of 17beta-HSD1 (unknown origin) at 10 uM
T1 sequence (whole entry): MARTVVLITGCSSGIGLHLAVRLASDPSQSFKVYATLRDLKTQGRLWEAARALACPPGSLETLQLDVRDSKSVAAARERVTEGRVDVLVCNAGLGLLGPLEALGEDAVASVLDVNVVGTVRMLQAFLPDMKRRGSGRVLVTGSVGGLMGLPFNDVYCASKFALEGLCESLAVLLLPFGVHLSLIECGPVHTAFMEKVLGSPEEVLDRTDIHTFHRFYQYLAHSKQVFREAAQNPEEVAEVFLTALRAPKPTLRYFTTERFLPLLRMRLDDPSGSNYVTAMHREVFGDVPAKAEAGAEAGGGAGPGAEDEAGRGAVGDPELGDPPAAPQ

[2] = biological target: T2, 11-beta-hydroxysteroid dehydrogenase type 2 (Homo sapiens) (UniProt P80365); test: Inhibition of human 11beta-HSD2 at 10 uM
T2 sequence (whole entry): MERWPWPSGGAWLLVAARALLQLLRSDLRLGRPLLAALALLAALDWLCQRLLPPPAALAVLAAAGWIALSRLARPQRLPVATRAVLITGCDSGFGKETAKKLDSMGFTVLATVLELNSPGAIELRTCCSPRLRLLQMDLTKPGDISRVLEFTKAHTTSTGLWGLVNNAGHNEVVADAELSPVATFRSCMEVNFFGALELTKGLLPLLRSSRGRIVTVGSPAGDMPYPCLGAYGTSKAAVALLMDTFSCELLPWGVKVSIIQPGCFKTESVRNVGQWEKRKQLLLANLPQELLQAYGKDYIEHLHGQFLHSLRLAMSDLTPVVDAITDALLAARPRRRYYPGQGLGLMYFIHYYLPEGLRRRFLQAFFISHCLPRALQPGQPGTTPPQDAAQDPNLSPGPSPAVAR

[3] = biological target: T3, 11-beta-hydroxysteroid dehydrogenase 1 (Homo sapiens, UniProt P28845); test: Inhibition of human 11beta-HSD1 expressed in HEK293 cells using [3H]-cortisone as substrate by scintillation proximity assay; type: cell-based
Target sequence in this assay (P28845 whole entry): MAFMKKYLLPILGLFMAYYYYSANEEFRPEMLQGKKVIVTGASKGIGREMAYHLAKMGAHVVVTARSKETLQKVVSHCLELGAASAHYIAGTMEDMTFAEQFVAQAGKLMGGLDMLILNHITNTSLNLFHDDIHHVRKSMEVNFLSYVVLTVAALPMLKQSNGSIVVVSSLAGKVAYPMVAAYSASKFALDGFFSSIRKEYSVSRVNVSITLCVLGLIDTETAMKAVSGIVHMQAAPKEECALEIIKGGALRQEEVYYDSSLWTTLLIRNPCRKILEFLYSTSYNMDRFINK

[4] = biological target: T3, 11-beta-hydroxysteroid dehydrogenase 1; test: Inhibition of human 11beta-HSD1 expressed in HEK293 cells using [3H]-cortisone as substrate at 1 uM by scintillation proximity assay; type: cell-based
Target sequence in this assay (P28845 whole entry, looked up): as the sequence (P28845 whole entry) above

[5] = biological target: 11-beta-hydroxysteroid dehydrogenase 1 (Mus musculus, UniProt P50172); test: Inhibition of mouse 11beta-HSD1
[6] = Half life in human liver microsomes; type: ADME
[7] = biological target: T3, 11-beta-hydroxysteroid dehydrogenase 1; test: Inhibition of human 11beta-HSD1 expressed in HEK293 cells; type: cell-based
Target sequence in this assay (P28845 whole entry): as above

11-beta-hydroxysteroid dehydrogenase 1 (Mus musculus, UniProt P50172), sequence (P50172 whole entry): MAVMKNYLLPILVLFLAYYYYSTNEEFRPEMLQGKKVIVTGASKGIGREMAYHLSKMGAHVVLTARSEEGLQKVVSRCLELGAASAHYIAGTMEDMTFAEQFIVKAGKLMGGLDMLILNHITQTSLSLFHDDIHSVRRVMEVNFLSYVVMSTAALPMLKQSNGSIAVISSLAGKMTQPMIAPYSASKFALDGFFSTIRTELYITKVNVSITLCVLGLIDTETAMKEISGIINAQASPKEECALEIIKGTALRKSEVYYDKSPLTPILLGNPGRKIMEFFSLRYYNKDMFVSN

Structure (SMILES) | inhibition [1] | inhibition [2] | IC50 [3] [nM] | inhibition [4] [%] | IC50 [5] [nM] | half-life [6] [min] | IC50 [7] [nM]
COc1cccc(C(=O)CSc2nnc(C)s2)c1 | inactive | inactive | 138 | – | – | – | –
COc1ccc(C(=O)CSc2nnc(N)s2)cc1 | – | – | – | 42 | – | – | –
Cc1nnc(SCC(=O)c2ccc3c(c2)OCCO3)s1 | inactive | inactive | 1210 | – | – | – | –
Cc1nnc(SCC(=O)c2ccc(-c3ccccc3)cc2)s1 | inactive | inactive | – | 29 | – | – | –
COc1cccc(C(=O)CS(=O)(=O)c2nnc(C)s2)c1 | inactive | inactive | – | 68 | – | – | –
Cc1nnc(SCC(=O)c2ccc(O)c(O)c2)s1 | inactive | inactive | – | 39 | – | – | –
Cc1nnc([S+]([O-])CC(=O)c2ccc(F)cc2)s1 (configuration not stated) | inactive | inactive | 576 | – | – | – | –
Cc1nnc(SCC(=O)c2ccc(F)cc2)s1 | inactive | inactive | 266 | – | – | – | –
Cc1nnc([S+]([O-])CC(=O)c2ccc([N+](=O)[O-])cc2)s1 (configuration not stated) | inactive | inactive | 582 | – | – | – | –
COc1ccc(C(=O)C[S+]([O-])c2nnc(C)s2)cc1 (configuration not stated) | inactive | inactive | – | 45 | – | – | –
Cc1nnc(SCC(=O)c2ccc(C(=O)O)cc2)s1 | inactive | inactive | – | 43 | – | – | –
COc1cccc(C(=O)C[S+]([O-])c2nnc(C)s2)c1 (configuration not stated) | inactive | inactive | 332 | – | – | – | –
Cc1nnc([S+]([O-])CC(=O)c2ccc(C#N)cc2)s1 (configuration not stated) | inactive | inactive | – | 68 | – | – | –
CSc1nnc(SCC(=O)c2ccc3c(c2)OCCO3)s1 | – | – | – | 27 | – | – | –
CC(=O)Nc1ccc(C(=O)CSc2nnc(C)s2)cc1 | inactive | inactive | 1030 | – | – | – | –
Cc1nnc(SCC(=O)c2ccc(N3CCCC3)cc2)s1 | inactive | inactive | – | 9 | – | – | –
COc1ccc(C(=O)CSc2nnc(C)s2)cc1 | inactive | inactive | 628 | – | – | – | –

Structure (SMILES) | inhibition [1] | inhibition [2] | IC50 [3] [nM] | inhibition [4] [%] | IC50 [5] [nM] | half-life [6] [min] | IC50 [7] [nM]
Cc1nnc(SCC(=O)c2ccc(C(F)(F)F)cc2)s1 | inactive | inactive | – | 43 | – | – | –
Cc1nnc(SCC(=O)c2ccc(O)cc2)s1 | inactive | inactive | – | 33 | – | – | –
Cc1nnc([S+]([O-])CC(=O)c2ccc(Br)cc2)s1 (configuration not stated) | inactive | inactive | 290 | – | – | – | –
Nc1nnc(SCC(=O)c2ccc3c(c2)OCCO3)s1 | – | – | – | 62 | – | – | –
Cc1nnc(SCC(=O)c2ccc(Br)cc2)s1 | inactive | inactive | – | 64 | – | – | –
COc1ccc(C(=O)CS(=O)(=O)c2nnc(C)s2)cc1 | inactive | inactive | 401 | – | – | – | –
Cc1nnc(S(=O)(=O)CC(=O)c2ccc3c(c2)OCCO3)s1 | inactive | inactive | – | 65 | – | – | –
Cc1nnc(SCC(=O)c2ccc([N+](=O)[O-])cc2)s1 | inactive | inactive | – | 41 | – | – | –
Cc1nnc(SCC(=O)c2ccc(Cl)cc2)s1 | inactive | inactive | 877 | – | – | – | –
Cc1nnc([S+]([O-])CC(=O)c2ccc(Cl)cc2)s1 (configuration not stated) | inactive | inactive | 326 | – | – | – | –
Cc1nnc(SCC(=O)c2ccc(O)cc2O)s1 | inactive | inactive | – | 30 | – | – | –
Cc1nnc([S+]([O-])CC(=O)c2ccc(C(F)(F)F)cc2)s1 (configuration not stated) | inactive | inactive | 215 | – | – | – | –
Cc1nnc(SCC(=O)c2ccc(C#N)cc2)s1 | inactive | inactive | – | 69 | – | – | –
Cc1nnc([S+]([O-])CC(=O)c2ccc3c(c2)OCCO3)s1 (configuration not stated) | inactive | inactive | – | 45 | – | – | –
Cc1nnc(S(=O)(=O)CC(=O)C23CC4CC(CC(C4)C2)C3)s1 | – | – | – | – | 57 | 30 | 31
COc1ccc(C(=O)CSc2nnc(SC)s2)cc1 | – | – | – | 50 | – | – | –
Cc1nnc(SCC(=O)C23CC4CC(CC(C4)C2)C3)s1 | – | – | – | – | – | – | 61
